US20250276120A1, “METHOD FOR PREVENTING COAGULATION IN PATIENTS WITH IMPLANTED CARDIAC DEVICES” (Cadrenal Therapeutics, Inc., priority 2024, published 2025)
Where two headings read alike, the source gives them in different places.

Experiments:
cytochrome P450 system = conditions: cited from earlier work
[1] = human, in vivo
[2] = pharmacokinetic study with fluconazole (CYP2C9 inhibitor) co-administration in healthy volunteers; conditions: fluconazole co-administered
[3] = aspirin added to warfarin, patients with atrial fibrillation already on warfarin; cited from earlier work
[4] = biological target: T1, human carboxylesterase 2 (hCE-2) (Homo sapiens, UniProt O00748); conditions: cited from earlier work
T1 sequence (O00748 27-559): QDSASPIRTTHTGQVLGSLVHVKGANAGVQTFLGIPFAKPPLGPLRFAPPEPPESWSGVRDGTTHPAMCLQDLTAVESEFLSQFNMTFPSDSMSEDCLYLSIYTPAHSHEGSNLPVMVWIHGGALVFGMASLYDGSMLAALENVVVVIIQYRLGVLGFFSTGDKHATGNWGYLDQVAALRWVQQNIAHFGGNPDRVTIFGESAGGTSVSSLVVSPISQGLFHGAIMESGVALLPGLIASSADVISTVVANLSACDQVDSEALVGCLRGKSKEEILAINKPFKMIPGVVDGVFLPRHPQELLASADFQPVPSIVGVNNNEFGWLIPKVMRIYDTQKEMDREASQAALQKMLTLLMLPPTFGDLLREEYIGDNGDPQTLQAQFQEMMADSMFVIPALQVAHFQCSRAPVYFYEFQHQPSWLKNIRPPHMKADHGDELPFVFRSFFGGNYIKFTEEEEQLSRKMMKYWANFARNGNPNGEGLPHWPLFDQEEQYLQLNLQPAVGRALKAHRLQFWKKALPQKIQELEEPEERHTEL

[5] = Phase 2/3 randomized, double-blind, active-control study tecarfarin versus warfarin, TTR as primary efficacy endpoint; assay type: in vivo, human
[6] = time-within-therapeutic range (TTR), supporting clinical data; assay type: in vivo, human; conditions: stable anticoagulation with tecarfarin
Excerpt: Tecarfarin is not metabolized via the cytochrome P450 system, but rather via an alternate pathway and enzyme (h-CE2) that is abundant throughout the body and essentially insaturable. Tecarfarin has a reliable and stable PK profile and PD response (anticoagulation), a well-understood mechanism of action (similar to other VKAs), with supporting clinical data.

CC(=O)CC(c1ccccc1)c1c(O)c2ccccc2oc1=O (racemic) [warfarin]
metabolism by the cytochrome P450 system (cytochrome P450 system): metabolized by multiple different isoenzymes of the cytochrome P450 system (primarily CYP2C9, CYP1A2 and CYP3A4) | effect of CKD on the effect of CYP2C9 genetic variation on exposure [1]: significantly increased | mean plasma concentrations in subjects with CKD versus healthy subjects [1]: significantly higher

CC(=O)C[C@@H](c1ccccc1)c1c(O)c2ccccc2oc1=O [(S)-warfarin, reference compound]
mean plasma concentrations in subjects with CKD versus healthy subjects (CKD versus healthy subjects): significantly higher | effect of CKD on the effect of CYP2C9 genetic variation on exposure (CKD, CYP2C9 genotype): significantly increased | effect of fluconazole co-administration on drug exposure [2]: significantly prolonged

CC(=O)C[C@H](c1ccccc1)c1c(O)c2ccccc2oc1=O [R-warfarin]
effect of fluconazole co-administration on drug exposure [2]: significantly prolonged

CC(=O)Oc1ccccc1C(=O)O [aspirin]
incremental rate of major bleeding [3]: 1.6 % per year

CC(OC(=O)c1ccc(Cc2c(O)c3ccccc3oc2=O)cc1)(C(F)(F)F)C(F)(F)F [Tecarfarin, 1,1,1,3,3,3-hexafluoro-2-methyl-2-propanyl 4-[(4-hydroxy-2-oxo-2H-chromen-3-yl)methyl] benzoate]
metabolic pathway (carboxylesterase) [4]: hydrolysis via by human carboxylesterase 2 (hCE-2) | change of elimination half-life (t1/2) in CKD (CKD versus healthy subjects): decreased | mean plasma concentrations in subjects with CKD versus healthy subjects (CKD versus healthy subjects): not significantly higher | metabolism by the cytochrome P450 system (cytochrome P450 system): does not proceed via the cytochrome P450 system | TTR on tecarfarin compared to warfarin ([5]; CYP2C9 genotypic variants on CYP2C9 inhibitors, small number of subjects): higher | percent of time-within-therapeutic-range (TTR), tecarfarin versus warfarin ([5]; general population requiring chronic oral anticoagulation, blinded treatment): did not differ significantly | TTR, tecarfarin versus warfarin ([5]; subjects with CYP2C9 wild type genotype): significant improvement | effect of fluconazole co-administration on PK [2]: unaffected | time-within-therapeutic range (TTR) [6]: > 72%
